This is an account of results in the OligoGym collection.

The target of the data set is HSD17B13. Particulars: ASO, HepaRG.

Values joined by “and” are separate entries in the source; they are usually repeats but may differ in a detail not shown here. Identical values can stand only once. After the bases stand the sugars from the 5' end (letter, count) and the backbone: PS all phosphorothioate, else s phosphorothioate and o phosphodiester by linkage. Methylation of C is not given here. e = 2'-O-(2-methoxyethyl) (MOE); k = constrained ethyl (cEt); d = 2'-deoxy (DNA); m = 2'-O-methyl

The sequence CAAGTTTGTTCATAGT (sugars k3 d10 k3, PS) gave a target mRNA inhibition (1 µM) of 78%.
For the setting “1 µM”, CAAAATGGTGGCGAGG (sugars k3 d10 k3, PS) had a target mRNA inhibition of 10%.
Still for that read-out and setting: as for CAGGAATGCATAAGAG (sugars k3 d10 k3, PS), the figure is 33%; as for AATTATGCCTTGTGGC (sugars k3 d10 k3, PS), 19%; as for TGACTGCTGCTAGTGC (sugars k3 d10 k3, PS), 50%.
For the sequence CTGTGGCATGGCTACA (sugars k3 d10 k3, PS), the target mRNA inhibition (1 µM) was 66%.
Turning to CATTCTAAACTACTAT (sugars k3 d10 k3, PS), the target mRNA inhibition (1 µM) worked out at 11%.
The same measure, in the same setting: as for CAAATTTGCTGGAACT (sugars k3 d10 k3, PS), the figure is 39%; as for TAAACCTTCCCTGTGT (sugars k3 d10 k3, PS), 17%; as for AATTAACATTCGGCTA (sugars k3 d10 k3, PS), 38%.
On the same count and under the same terms, as for TACAGATTGGAATGCT (sugars k3 d10 k3, PS), the figure is 46%; as for “GAGTGCATCTTAAGAT (sugars k3 d9 k3 e1, PS)”, 34%.
On the same count and under the same terms, the figure for “ACAATATGGGATGAGG (sugars kkdddddddddkekek, PS)” is 51%.
For TAGTTATCTTCTCACT (sugars k3 d10 k3, PS), the target mRNA inhibition (1 µM) came to 52%.
As to “AGTCCATGCAAAAGCA (sugars k3 d1 m1 d8 k3, PS)”, the target mRNA inhibition turned out to be 0% (0.02 µM); 21% (0.078 µM); 20% (0.313 µM); 73% (1 µM); 65% (1.25 µM); 75% (5 µM).
“ACTTGAACAGTCTTAA (sugars kkdddddddddkekek, PS)” gave a target mRNA inhibition (1 µM) of 60%.
Still for that read-out and setting: as for GTTTAGAAGTCAAACG (sugars k3 d10 k3, PS), the figure is 0%; as for TATACGATGGAACAAA (sugars k3 d10 k3, PS), 4%; as for “CTGAAATTGATACACC (sugars kkdddddddddkekek, PS)”, 45%.
On to TATATACTAGGATTAG (sugars k3 d10 k3, PS), for which the target mRNA inhibition (1 µM) amounted to 10%.
Consider TATTATGTGATTGAGT (sugars k3 d10 k3, PS), for which the target mRNA inhibition (0.02 µM) was 60% and 50%; the target mRNA inhibition (0.078 µM) came out at 69%; the target mRNA inhibition (0.313 µM) stood at 68%; the target mRNA inhibition (1 µM) stood at 86%; the target mRNA inhibition (1.25 µM) turned out to be 76%.
Turning to TGTGACGATGTGGCCA (sugars k3 d10 k3, PS), the target mRNA inhibition (1 µM) worked out at 42%.
As to GTGGATTACATACAAG (sugars k3 d10 k3, PS), under “1 µM”, the target mRNA inhibition amounted to 57%.
Take GTTTTGGGCTAATGAA (sugars k3 d10 k3, PS): the target mRNA inhibition (1 µM) is 54%.
The same measure, in the same setting: as for GACATAACTACTTCAG (sugars k3 d10 k3, PS), the figure is 66%.
With GTCCACTTTTGGTGGA (sugars k3 d10 k3, PS), where the note is “1 µM”, the target mRNA inhibition came to 14%.
The same measure, in the same setting: the figure for TAATATTGAGGCACTG (sugars k3 d10 k3, PS) is 33%; for GTCACCTTTCATAATG (sugars k3 d10 k3, PS) it is 45%.
For the sequence GAAGGATTTCTAGGAT (sugars k3 d10 k3, PS), the target mRNA inhibition was determined as 0% (0.02 µM); 0% (0.078 µM); 24% (0.313 µM); 71% (1 µM); 61% (1.25 µM); 88% (5 µM).
As to “ATCAAGACATTCTAGC (sugars k4 m1 d8 k3, PS)”, the target mRNA inhibition (1 µM) stood at 37%.
Same read-out and setting: the figure for “AGACTTTGAGACTCTT (sugars k3 d9 k3 e1, PS)” is 41%; for TGATACACCAATGCAG (sugars k3 d10 k3, PS) it is 44%.
On the same count and under the same terms, the figure for CTCAGGCTGTAAGAGT (sugars k3 d10 k3, PS) is 21%; for TAAGATGTCCAGGCAT (sugars k3 d10 k3, PS) it is 17%.
For the sequence GGAATGCTACTTGAAC (sugars k3 d10 k3, PS), the target mRNA inhibition (1 µM) was determined as 63%.
Still for that read-out and setting: as for AAGTAAGGTAAAGTCT (sugars k3 d10 k3, PS), the figure is 20%; as for CCATCCCCTAAGTTAT (sugars k3 d10 k3, PS), 14%; as for GAAGTTCTGATGTCAG (sugars k3 d10 k3, PS), 0%.
Same read-out and setting: as for TAGGCAGTAAAGTGCT (sugars k3 d10 k3, PS), the figure is 48%.
Regarding GTCAGTAGAGAGCATA (sugars k3 d10 k3, PS), the target mRNA inhibition by setting is: (0.02 µM) 0%; (0.078 µM) 0%; (0.313 µM) 27%; (1 µM) 85%; (1.25 µM) 78%; (5 µM) 74%.
Take AGGATGTTGACCTCAA (sugars k3 d10 k3, PS): the target mRNA inhibition (1 µM) came out at 4%.
Where the note is “1 µM”, TGCTAAAAGCTCACCA (sugars k3 d10 k3, PS) came in with a target mRNA inhibition of 49%.
On the same count and under the same terms, as for AGACAGACTGTTGAGC (sugars k3 d10 k3, PS), the figure is 74%.
Turning to “TCACCTTTCATAATGT (sugars k3 d1 m1 d8 k3, PS)”, the target mRNA inhibition (1 µM) was found to be 47%.
With “GATTAGTCTTGATGTA (sugars k3 d1 m1 d8 k3, PS)”, the target mRNA inhibition (1 µM) stood at 45%.
The same measure, in the same setting: as for CATACCACTCTTCTCA (sugars k3 d10 k3, PS), the figure is 24%; as for ATTCACATATGTGAAG (sugars k3 d10 k3, PS), 0%.
Take CCAGAAGTATGTGAAC (sugars k3 d10 k3, PS): the target mRNA inhibition (1 µM) is 8%.
Same read-out and setting: the figure for CTATATAAATTCTGAC (sugars k3 d10 k3, PS) is 0%; for GGACCAAGGATATATG (sugars k3 d10 k3, PS) it is 56%; for “TGATGTAGTGGGAGTC (sugars k3 d1 m1 d8 k3, PS)” it is 43%.
As to AGCATAAGTTACCAGA (sugars k3 d10 k3, PS), the target mRNA inhibition runs as follows: (0.02 µM) 14%; (0.078 µM) 31%; (0.313 µM) 49%; (1 µM) 87%; (1.25 µM) 73%; (5 µM) 92%.
CATATCCAGTAGGTGT (sugars k3 d10 k3, PS) displayed a target mRNA inhibition (1 µM) of 37%.
On the same count and under the same terms, as for AGTAGATTTGGTAGAG (sugars k3 d10 k3, PS), the figure is 67%; as for CATCTAGAATTAAGGG (sugars k3 d10 k3, PS), 53%.
On the same count and under the same terms, the figure for “TGATGTAGTGGGAGTC (sugars kkdddddddddkekek, PS)” is 46%.
Same read-out and setting: as for AGAAGGACTTTCATAG (sugars k3 d10 k3, PS), the figure is 46%; as for TTGAATAGCAAGCCAA (sugars k3 d10 k3, PS), 31%.
As for “GTTCTTGTTGATATTC (sugars kkdddddddddkekek, PS)”, the target mRNA inhibition (1 µM) was found to be 66%.
Take ATCCTGTAAACACTTC (sugars k3 d10 k3, PS): the target mRNA inhibition by setting is: (0.02 µM) 11%; (0.078 µM) 13%; (0.313 µM) 27%; (1 µM) 79%; (1.25 µM) 66%; (5 µM) 87%.
For TGTATTTCGCTACTGT (sugars k3 d10 k3, PS), the target mRNA inhibition came out at 12% (0.02 µM); 18% (0.078 µM); 46% (0.313 µM); 76% (1 µM); 80% (1.25 µM); 90% (5 µM).
As to “GTCGGTCACCTTTCAT (sugars k3 d9 k3 e1, PS)”, the target mRNA inhibition (1 µM) is 68%.
The same measure, in the same setting: the figure for CCCTAAGTTATTATCC (sugars k3 d10 k3, PS) is 25%; for “ATGAAGTTAGTATAGT (sugars k3 d9 k3 e1, PS)” it is 61%; for GGTCCATTGTTTCTTA (sugars k3 d10 k3, PS) it is 36%.
The same measure, in the same setting: as for TGGAAGATTAATCATA (sugars k3 d10 k3, PS), the figure is 12%.
Regarding “GTTGCACCGTTTTGGG (sugars k3 d9 k3 e1, PS)”, the target mRNA inhibition (1 µM) worked out at 45%.
Still for that read-out and setting: as for AGTATTTGGGTGTTCT (sugars k3 d10 k3, PS), the figure is 17%; as for CATATGGTGTACACTG (sugars k3 d10 k3, PS), 15%.
The same measure, in the same setting: the figure for ATCTAGAACACTTGCC (sugars k3 d10 k3, PS) is 27%; for TTATTATGTGATTGAG (sugars k3 d10 k3, PS) it is 23%; for TTTCCTCCACACCGCG (sugars k3 d10 k3, PS) it is 18%.
The same measure, in the same setting: the figure for GTATTTACTTTTAGGG (sugars k3 d10 k3, PS) is 61%.
For “AAGACATTCTAGCCTG (sugars k3 d1 m1 d8 k3, PS)”, the target mRNA inhibition (1 µM) came to 54%.
Still for that read-out and setting: the figure for TTTATTATGAGGATCT (sugars k3 d10 k3, PS) is 43%; for CTTCTATTAGTTGGCC (sugars k3 d10 k3, PS) it is 11%; for GAATCCAGATCTGCCC (sugars k3 d10 k3, PS) it is 29%.
Still for that read-out and setting: the figure for AGTGTAAGCTGAGAGT (sugars k3 d10 k3, PS) is 71%; for TCACAATCTAGCAACC (sugars k3 d10 k3, PS) it is 4%; for AACCAATATGCTCTGT (sugars k3 d10 k3, PS) it is 51%.
The same measure, in the same setting: as for GGAGGTAGCTTTTGTC (sugars k3 d10 k3, PS), the figure is 43%.
As to “AATAUTGAGGCACTGG (sugars k3 d1 m1 d8 k3, PS)”, the target mRNA inhibition (1 µM) is 48%.
